Patent publication US6004933A, “Cysteine protease inhibitors” (Cortech Inc., priority 1998, dated 1999)

Assays:
[1] = system: picornain 2A protease; assay: Inhibitory activity against picornain 2A protease; format: biochemical; details: at 100 μM
[2] = target: T1, papain (Carica papaya, UniProt P00784); assay: Papain inhibition, fluorometric assay with Cbz-Phe-Arg-NHMec; format: biochemical; details: IC50 at substrate << Km taken as Ki; pH 6.8
T1 construct: purchased Sigma (St. Louis, Mo.)
T1 sequence (P00784 134-345): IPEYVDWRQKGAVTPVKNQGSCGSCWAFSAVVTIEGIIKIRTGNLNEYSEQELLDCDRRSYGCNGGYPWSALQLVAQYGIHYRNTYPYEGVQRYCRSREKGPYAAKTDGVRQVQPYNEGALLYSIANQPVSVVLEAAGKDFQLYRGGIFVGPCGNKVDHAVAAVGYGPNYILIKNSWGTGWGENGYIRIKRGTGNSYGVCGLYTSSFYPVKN
From the text: (§1) The enzyme cathepsin B (E.C. 3.4.22.01) was obtained from Calbiochem (San Diego, Calif.); cathepsin L (E.C. 3.4.22.15) from Athens Research and Technology Inc. (Athens,Ga.); and papain (E.C. 3.4.22.02) from Sigma (St. Louis, Mo.).
(§2) Cbz-Phe-Arg-NHMec (--NHMec: 7-(4-methyl)coumarylamide) was obtained from BachemCalifornia, Inc. (Torrance, Calif.). All other reagents were obtained from Sigma.
(§3) The enzymes used in enzyme assays with methylcoumarylamides were activated as described elsewhere (Barret, et al., Methods Enzymol. 80:535-561 (1981); Bromme, et al., Biochem. J, 264: 475-481 (1989). Cathepsin L was assayed in 0.34 M sodium acetate buffer, pH 5.5, containing 0.1% (v/v) Brij 35, 2.5 mM dithiothreitol (DTT) and 5 mM Na2 -EDTA. Cathepsin B was assayed under the same conditions, except that the buffer was adjusted to pH 6. Papain was assayed in 50 mM sodium phosphate buffer, pH 6.8, containing 0.2 M sodium chloride, 2 mM DTT, 1 mM Na2 -EDTA and 0.025% Brij 35 (v/v).
(§4) Initial velocities of enzymatic reactions were measured spectrofluorometrically (λex =370 nm, λem 460 nm) with a Quanta Master QM1 (Photon Technologies International, South Brunswick, N.J.). Stock solutions of the enzymes were diluted into the buffer, equilibrated at room temperature, and preincubated without or with increasing concentrations of inhibitors. The reactions were started by addition of substrate. A total of 4 to 8 inhibitor concentrations were used to determine IC50 values. In all cases the substrate concentrations were much smaller than the Km value, and the IC50 values measured approximated the Ki directly (Cheng, et al., Biochemical Pharmacology, 22:3099-3108 (1973)).

[3] = target: T2, cathepsin B (Homo sapiens, UniProt P07858); assay: Cathepsin B inhibition, fluorometric assay with Cbz-Phe-Arg-NHMec; format: biochemical; details: human enzyme; IC50 at substrate << Km taken as Ki; pH 6
T2 construct: purchased Calbiochem (San Diego, Calif.)
From the text: as §1, §2, §3, §4

[4] = target: T3, cathepsin L (Homo sapiens, UniProt P07711); assay: Cathepsin L inhibition, fluorometric assay with Cbz-Phe-Arg-NHMec; format: biochemical; details: human enzyme; IC50 at substrate << Km taken as Ki; pH 5.5
T3 construct: purchased Athens Research and Technology Inc. (Athens,Ga.)
T3 sequence (P07711 114-333): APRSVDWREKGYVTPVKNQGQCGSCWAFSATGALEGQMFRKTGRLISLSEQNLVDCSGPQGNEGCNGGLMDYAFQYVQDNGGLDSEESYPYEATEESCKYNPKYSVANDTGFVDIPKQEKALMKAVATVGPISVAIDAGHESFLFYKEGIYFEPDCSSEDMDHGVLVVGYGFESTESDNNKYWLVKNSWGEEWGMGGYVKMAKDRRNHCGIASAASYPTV
From the text: as §1, §2, §3, §4

[5] = system: gingipain R (RGP); assay: Gingipain assay, BAPNA cleavage at 405 nm; format: biochemical, human; details: 2 mM BAPNA, cell marked (IC50) in the Ki [nM] table
Method: All assays were carried out in a 96 well microtiter plate reader and cleavage of BAPNA (Nα-benzoyl-DL-arginine-p-nitroanilide hydrochloride) was detected at 405 nm.
All assays were performed as follows: 180 μl assay buffer (50 mM Tris, […], at pH 7.6) was mixed with 10 μl gingipain R (RGP). The mixture was incubated for 5 min. at room temperature to reduce and activate RGP. 10 μl of each inhibitor were added at various concentrations. These mixtures were incubated for 10 min. at room temperature to allow the inhibitors to complex with RGP. 50 μl of 10 mM BAPNA substrate was added. A two minute assay was performed with a final volume of 250 μl, and a final BAPNA concentration of 2 mM.
For this reason, two minute assays were performed whereby the Vmax in mOD/min change in absorbance at 405 nm was used as the initial velocity reading. In order to titrate RGP against leupeptin and to determine % activity, these velocity readings were transformed on a percent scale where the 100% control contained no inhibitor. The initial velocity values were also entered into Graphpad Prism regression program along with the various inhibitor concentrations to obtain the IC50 values. All data represents the minimum of duplicates, and at times triplicate sets.

[6] = target: FLICE (Mch5, Caspase 8) (Homo sapiens, UniProt Q14790); assay: Caspase inhibition, photometric, Ac-DEVD-pNA; format: biochemical; details: 20 μM Ac-DEVD-pNA, 37° C.; read-out: Ki, FLICE (Mch5, Caspase 8)
Sequence of FLICE (Mch5, Caspase 8) (Q14790 217-374 limits assumed, species assumed): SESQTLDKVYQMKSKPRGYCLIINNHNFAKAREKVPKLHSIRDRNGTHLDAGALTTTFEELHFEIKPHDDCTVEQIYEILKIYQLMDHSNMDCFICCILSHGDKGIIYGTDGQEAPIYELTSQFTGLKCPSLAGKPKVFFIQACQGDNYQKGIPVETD
Sequence of FLICE (Mch5, Caspase 8) (Q14790 385-479 limits assumed, species assumed): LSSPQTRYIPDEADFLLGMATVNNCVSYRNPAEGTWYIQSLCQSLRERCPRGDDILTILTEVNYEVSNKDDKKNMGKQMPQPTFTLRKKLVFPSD
Method: (§5) Inhibition constants were measured photometrically for YAMA (caspase 3), Lap3 (caspase 7), FLICE (caspase 8), Mch2 (caspase 6) and granzyme B. The buffer used for all enzymes consisted of 50 mM Hepes, 100 mM sodium chloride, 10% (v/v) sucrose, 0.1% (v/v) CHAPS and 10 mM dithiothreitol (DTT). In the case of granzyme B, only 1 mM DTT was used.
(§6) Enzymes were incubated at 37° C. for 10 minutes in 100 μL well plates and synthetic substrate and inhibitor were added simultaneously. Final substrate concentration was 20 μM in all cases. The synthetic substrate Ac-DEVD-pNA was used for all caspases and Succ-AAPD-pNA was used for granzyme B. The appearance of product was monitored over 10 minutes at 410 nm using a Spectromax 340 and IC50 curves were calculated from the initial slopes at varying inhibitor concentrations and inhibition constants were calculated.

[7] = target: T4, Lap3 (Mch3, Caspase 7) (Homo sapiens, UniProt P55210); assay: Caspase inhibition, photometric, Ac-DEVD-pNA; format: biochemical; details: 20 μM Ac-DEVD-pNA, 37° C.
T4 sequence (P55210 24-198 limits assumed): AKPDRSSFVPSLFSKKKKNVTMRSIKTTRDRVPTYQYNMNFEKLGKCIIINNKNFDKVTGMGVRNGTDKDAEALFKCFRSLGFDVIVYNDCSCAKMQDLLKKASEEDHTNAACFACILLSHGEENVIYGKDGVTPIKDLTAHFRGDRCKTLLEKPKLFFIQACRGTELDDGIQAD
T4 sequence (P55210 207-303 limits assumed): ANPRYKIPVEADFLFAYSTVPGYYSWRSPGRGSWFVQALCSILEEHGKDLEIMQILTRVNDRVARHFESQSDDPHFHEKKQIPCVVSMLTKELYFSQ
Method: as §5, §6

[8] = target: T5, Mch2 (Caspase 6) (Homo sapiens, UniProt P55212); assay: Caspase inhibition, photometric, Ac-DEVD-pNA; format: biochemical; details: 20 μM Ac-DEVD-pNA, 37° C.
T5 sequence (P55212 24-179 limits assumed): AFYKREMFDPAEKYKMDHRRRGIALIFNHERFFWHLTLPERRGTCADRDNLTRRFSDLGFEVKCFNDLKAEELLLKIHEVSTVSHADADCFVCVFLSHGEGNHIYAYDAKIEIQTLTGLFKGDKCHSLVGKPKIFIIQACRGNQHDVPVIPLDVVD
T5 sequence (P55212 194-293 limits assumed): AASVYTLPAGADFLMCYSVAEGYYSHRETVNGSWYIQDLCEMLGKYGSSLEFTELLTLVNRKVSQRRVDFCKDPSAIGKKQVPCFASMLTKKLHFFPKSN
Method: as §5, §6

[9] = target: T6, YAMA (CPP32, Caspase 3) (Homo sapiens, UniProt P42574); assay: Caspase inhibition, photometric, Ac-DEVD-pNA; format: biochemical; details: 20 μM Ac-DEVD-pNA, 37° C.
T6 sequence (P42574 29-175 limits assumed): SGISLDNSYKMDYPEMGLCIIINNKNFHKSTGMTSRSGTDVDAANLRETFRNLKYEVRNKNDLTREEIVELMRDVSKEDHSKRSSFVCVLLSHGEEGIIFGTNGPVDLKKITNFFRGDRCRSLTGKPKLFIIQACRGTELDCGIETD
T6 sequence (P42574 176-277 limits assumed): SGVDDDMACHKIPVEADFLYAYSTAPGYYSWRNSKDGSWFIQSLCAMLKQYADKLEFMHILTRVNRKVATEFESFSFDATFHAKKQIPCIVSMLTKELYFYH
Method: as §5, §6

[10] = target: T7, ICE (Caspase 1) (Homo sapiens, UniProt P29466); assay: THP-1 assay: IL-1β release after LPS stimulation (assay for ICE inhibition); format: cell-based
T7 construct: endogenous in cells; host or cells: THP-1
T7 sequence (P29466 120-297 limits assumed): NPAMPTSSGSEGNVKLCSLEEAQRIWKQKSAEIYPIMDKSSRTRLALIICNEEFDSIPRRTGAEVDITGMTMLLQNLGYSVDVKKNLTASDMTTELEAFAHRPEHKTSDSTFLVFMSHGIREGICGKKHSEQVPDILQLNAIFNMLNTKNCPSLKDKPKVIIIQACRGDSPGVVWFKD
T7 sequence (P29466 317-404 limits assumed): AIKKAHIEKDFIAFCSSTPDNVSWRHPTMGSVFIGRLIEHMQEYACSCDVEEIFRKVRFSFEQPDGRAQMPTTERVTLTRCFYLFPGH
From the text: To examine the ability of the caspase family inhibitors, CQ-0010 and CQ-0011, to inhibit human IL-1β production, two different assays were employed. In the first, the human monocytic cell line, THP-1, was stimulated with E. coli lipopolysaccharide (LPS serotype 0127-88; Sigma Chemical Co., St. Louis, Mo.) in the presence and absence of the inhibitors. This cell line synthesizes and secretes IL-1β and TNFα as well as other cytokines upon LPS stimulation. The second assay used freshly-isolated human whole blood similarly stimulated with LPS.
Two×10^6 THP-1 cells were added to 24 well plates in 1 ml RPMI supplemented with 1% FCS, glutamine and 5×10^-5 M mercaptoethanol. Two-fold serial dilutions of the inhibitors, CQ-0010, CQ-0011 and the commmercially available Ac-YVAD-CHO (Biomol Research Laboratories Inc., Plymouth Meeting, Pa.), were preincubated with the cells for 15 min at 37° C. LPS was then added to a final concentration of 1 ug/ml and the plates incubated for 4 hr at 37° C. All incubations were carried out in a humidified incubator with 5% CO2 in air.
Supernatants were harvested after 4 hr and assayed by ELISA for the presence of TNFα and IL-1β using commercially available kits (PerSeptive Biosystems, Framingham, Mass. and R&D Systems, Minneapolis, Minn., respectively).

[11] = target: granzyme B (Homo sapiens, UniProt P10144); assay: Granzyme B inhibition, photometric, Succ-AAPD-pNA; format: biochemical; details: 20 μM Succ-AAPD-pNA, 1 mM DTT
Sequence of granzyme B (P10144 21-247, species assumed): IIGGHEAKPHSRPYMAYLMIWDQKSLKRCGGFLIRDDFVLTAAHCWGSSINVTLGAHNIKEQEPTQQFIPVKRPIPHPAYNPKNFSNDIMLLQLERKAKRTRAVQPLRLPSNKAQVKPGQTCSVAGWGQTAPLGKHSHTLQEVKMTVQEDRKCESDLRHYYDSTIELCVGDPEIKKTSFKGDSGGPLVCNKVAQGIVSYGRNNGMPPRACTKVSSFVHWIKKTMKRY
Method: as §5, §6

Compound	inhibition of picornain 2A protease [1] [%]	Ki [2] [nM]	Ki [3] [nM]	Ki [4] [nM]	other results
CC(C)[C@H](NC(=O)CCC(=O)OC(C)(C)C)C(=O)N1CCC[C@H]1C(=O)NC(Cc1ccccc1)C(=O)c1noc(Cc2cccc(C(F)(F)F)c2)n1 (stereo partly drawn) [CE-2060, (t-butoxysuccinyl)-L-valyl-N-[1-[3-[5-(3-trifluoromethylbenzyl)-1,2,4-oxadiazolyl]carbonyl]-2-benzylidone]-L-prolinamide]	100				
Cc1cccc(Cc2nnc(C(=O)C(NC(=O)[C@@H]3CCCN3C(=O)[C@@H](NC(=O)OCc3ccccc3)C(C)C)C(C)C)o2)c1 (stereo partly drawn) [CE-2072, (Benzyloxycarbonyl)-L-valyl-N-[1-(2-[5-(3-methylbenzyl)-1,3,4-oxadiazolyl]carbonyl)-2-(S)-methylpropyl]-L-prolinamide]	100				
Cc1cccc(Cc2nnc(C(=O)[C@@H](NC(=O)[C@H](Cc3ccccc3)NC(=O)[C@@H](CC(=O)O)CC(C)C)C(C)C)o2)c1 [CM-0019B, [[2-[5-(3-methylbenzyl)-1,3,4-oxadiazolyl]carbonyl]-2-(S)-methylpropyl]-L-phenylalanamide-(3R)-(isobutyl)succinic acid]		85	3000	~100	
CC(=O)N[C@@H](CC(C)C)C(=O)N[C@@H](CC(C)C)C(=O)NC(CCCN=C(N)N)C(=O)c1nnc(-c2ccccc2)o1 (some centres unmarked) [CQ-0002]		1200	324 ± 46	6 ± 0.98	IC50 [5]: 28 nM
CC(=O)N[C@@H](CC(C)C)C(=O)N[C@@H](CC(C)C)C(=O)NC(C)C(=O)c1noc(C)n1 (stereo partly drawn) [CQ-0004, Acetyl-L-leucyl-N-[1-[3-[5-methyl]-1,2,4-oxadiazolyl]carbonyl]-ethyl-L-leucyl amide]		25600 ± 5340	27200 ± 1900	61 ± 14	
CC(=O)N[C@@H](CC(C)C)C(=O)N[C@@H](CC(C)C)C(=O)NC(CCCN=C(N)N)C(=O)c1noc(C)n1 (stereo partly drawn) [CQ-0008, Acetyl-L-leucyl-N-[1-[3-[5-methyl-1,2,4-oxadiazolyl]carbonyl]-4-(guanidino)-butyl]-L-leucyl amide]		8590 ± 1860	1240 ± 182	7.13 ± 0.32	
CC(=O)N[C@@H](CC(=O)O)C(=O)N[C@H](C(=O)N[C@@H](CCC(=O)O)C(=O)NC(CC(=O)O)C(=O)c1nnc(-c2ccccc2)o1)C(C)C (stereo partly drawn) [CQ-0011, Acetyl-L-Aspartyl-Valyl-N-[1-[2-[(5-phenyl)-1,3,4-oxadiazolyl]carbonyl]-2-(carboxy)-ethyl]-L-glutamyl amide]					Ki [6]: ≤ 30 nM; Ki [7]: ≤ 30 nM; Ki [8]: 6700 nM; Ki [9]: ≤ 100 nM; IC50 ([10]; LPS 1 ug/ml, 4 hr, ELISA, read-out: IC50 of reduction of IL1β release from THP1 cell line): 3000 nM; potency in inhibiting IL1β production relative to CQ-0010 (fold less) ([10]; THP-1 cells (FIG. 1; Table 4)): approximately 10 fold; Ki, Granzyme [11]: Not Active
Carboxysuccinyl-L-valyl-N-[1-[3-[5-(3-trifluoromethylbenzyl)- 1,2,4-oxadiazolyl]carbonyl]-2-benzylidone]-L-prolinamide [CE-2061]	100				
